# Article PMC4979471 (Cell Death Discovery, 2015)
# Like-named read-outs stand apart in the source and are kept apart here.
# How the values were obtained:
# Experiment in all cases: Kinase selectivity, P33-radiolabeled assay
# Format in all cases: biochemical
# Settings in all cases: 10 μM ATP
# ALK4/ACVR1B = target: T1, ALK4/ACVR1B (Homo sapiens, UniProt P36896)
# T1 construct: purchased Reaction Biology Corp
# T1 sequence (P36896 24-505): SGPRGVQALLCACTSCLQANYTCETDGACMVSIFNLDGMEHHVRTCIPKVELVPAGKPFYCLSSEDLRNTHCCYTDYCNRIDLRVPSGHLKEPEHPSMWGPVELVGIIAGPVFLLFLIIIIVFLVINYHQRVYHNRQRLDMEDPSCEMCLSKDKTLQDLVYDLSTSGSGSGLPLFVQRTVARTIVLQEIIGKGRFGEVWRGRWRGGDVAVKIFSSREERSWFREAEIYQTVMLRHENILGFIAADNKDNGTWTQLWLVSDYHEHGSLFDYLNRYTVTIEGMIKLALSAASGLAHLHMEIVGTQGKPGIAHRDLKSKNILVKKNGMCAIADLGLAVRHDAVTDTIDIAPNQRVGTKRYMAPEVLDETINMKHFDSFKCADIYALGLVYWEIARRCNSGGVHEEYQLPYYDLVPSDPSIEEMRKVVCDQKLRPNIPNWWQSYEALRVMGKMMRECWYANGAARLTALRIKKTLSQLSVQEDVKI
# In short: (§1)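 Reactions contained 10 μM ATP and 10 μM test compound, each run in duplicate. Kinase activity is expressed as a percentage of DMSO-treated controls.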
# MKK6 = target: T2, MKK6 (Homo sapiens, UniProt P52564)
# T2 construct: purchased Reaction Biology Corp
# T2 sequence (P52564 1-334): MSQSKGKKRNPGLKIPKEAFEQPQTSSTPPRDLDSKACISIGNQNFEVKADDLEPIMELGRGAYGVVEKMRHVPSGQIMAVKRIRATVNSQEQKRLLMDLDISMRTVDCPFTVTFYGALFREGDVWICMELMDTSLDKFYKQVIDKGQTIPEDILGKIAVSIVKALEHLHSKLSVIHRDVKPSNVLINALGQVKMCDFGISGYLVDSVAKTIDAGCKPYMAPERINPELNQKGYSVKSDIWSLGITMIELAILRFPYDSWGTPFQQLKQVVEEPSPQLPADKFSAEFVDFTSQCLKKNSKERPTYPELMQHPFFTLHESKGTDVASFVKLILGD
# In short: as §1
# MEK3 = target: T3, MEK3 (Homo sapiens, UniProt P46734)
# T3 construct: purchased Reaction Biology Corp
# T3 sequence (P46734 1-347): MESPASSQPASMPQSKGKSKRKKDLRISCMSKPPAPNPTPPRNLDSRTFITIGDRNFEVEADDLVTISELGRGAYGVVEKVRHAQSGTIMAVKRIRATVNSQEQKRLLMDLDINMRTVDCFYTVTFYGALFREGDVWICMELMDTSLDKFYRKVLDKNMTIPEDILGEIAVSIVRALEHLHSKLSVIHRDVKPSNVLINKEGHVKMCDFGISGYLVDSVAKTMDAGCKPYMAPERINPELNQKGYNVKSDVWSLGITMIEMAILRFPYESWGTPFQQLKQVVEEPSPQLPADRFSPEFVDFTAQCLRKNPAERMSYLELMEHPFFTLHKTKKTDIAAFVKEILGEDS
# In short: as §1
# PKN3/PRK3 = target: T4, PKN3/PRK3 (Homo sapiens, UniProt Q6P5Z2)
# T4 construct: purchased Reaction Biology Corp
# In short: as §1
# STK25/YSK1 = target: T5, STK25/YSK1 (Homo sapiens, UniProt O00506)
# T5 construct: purchased Reaction Biology Corp
# In short: as §1
# PKCepsilon = target: T6, PKCepsilon (Homo sapiens, UniProt Q02156)
# T6 construct: purchased Reaction Biology Corp
# T6 sequence (Q02156 1-737): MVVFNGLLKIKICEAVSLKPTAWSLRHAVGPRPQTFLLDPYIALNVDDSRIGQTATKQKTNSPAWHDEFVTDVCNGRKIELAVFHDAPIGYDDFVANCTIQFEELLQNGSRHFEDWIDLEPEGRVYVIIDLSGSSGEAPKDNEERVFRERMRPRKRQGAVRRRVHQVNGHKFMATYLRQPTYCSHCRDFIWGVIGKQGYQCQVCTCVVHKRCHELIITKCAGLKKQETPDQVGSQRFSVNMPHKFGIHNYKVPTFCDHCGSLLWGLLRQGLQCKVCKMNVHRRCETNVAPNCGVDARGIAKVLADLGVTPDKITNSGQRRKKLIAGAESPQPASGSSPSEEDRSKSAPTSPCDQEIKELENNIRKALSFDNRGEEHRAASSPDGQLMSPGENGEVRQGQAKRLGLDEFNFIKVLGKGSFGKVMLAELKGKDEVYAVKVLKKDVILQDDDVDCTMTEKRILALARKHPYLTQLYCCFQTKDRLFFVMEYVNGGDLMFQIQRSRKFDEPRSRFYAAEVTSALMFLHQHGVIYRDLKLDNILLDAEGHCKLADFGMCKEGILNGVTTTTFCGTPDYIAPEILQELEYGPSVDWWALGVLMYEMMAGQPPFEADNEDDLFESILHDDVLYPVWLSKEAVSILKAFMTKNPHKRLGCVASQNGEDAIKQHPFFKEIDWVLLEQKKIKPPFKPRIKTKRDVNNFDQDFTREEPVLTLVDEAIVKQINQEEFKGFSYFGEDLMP
# In short: as §1
# [1] = read-out: % Enzyme Activity (relative to DMSO controls) AVG
# [2] = read-out: % Enzyme Activity (relative to DMSO controls) Data 1
# [3] = read-out: % Enzyme Activity (relative to DMSO controls) Data 2
# T4 sequence (Q6P5Z2 whole entry): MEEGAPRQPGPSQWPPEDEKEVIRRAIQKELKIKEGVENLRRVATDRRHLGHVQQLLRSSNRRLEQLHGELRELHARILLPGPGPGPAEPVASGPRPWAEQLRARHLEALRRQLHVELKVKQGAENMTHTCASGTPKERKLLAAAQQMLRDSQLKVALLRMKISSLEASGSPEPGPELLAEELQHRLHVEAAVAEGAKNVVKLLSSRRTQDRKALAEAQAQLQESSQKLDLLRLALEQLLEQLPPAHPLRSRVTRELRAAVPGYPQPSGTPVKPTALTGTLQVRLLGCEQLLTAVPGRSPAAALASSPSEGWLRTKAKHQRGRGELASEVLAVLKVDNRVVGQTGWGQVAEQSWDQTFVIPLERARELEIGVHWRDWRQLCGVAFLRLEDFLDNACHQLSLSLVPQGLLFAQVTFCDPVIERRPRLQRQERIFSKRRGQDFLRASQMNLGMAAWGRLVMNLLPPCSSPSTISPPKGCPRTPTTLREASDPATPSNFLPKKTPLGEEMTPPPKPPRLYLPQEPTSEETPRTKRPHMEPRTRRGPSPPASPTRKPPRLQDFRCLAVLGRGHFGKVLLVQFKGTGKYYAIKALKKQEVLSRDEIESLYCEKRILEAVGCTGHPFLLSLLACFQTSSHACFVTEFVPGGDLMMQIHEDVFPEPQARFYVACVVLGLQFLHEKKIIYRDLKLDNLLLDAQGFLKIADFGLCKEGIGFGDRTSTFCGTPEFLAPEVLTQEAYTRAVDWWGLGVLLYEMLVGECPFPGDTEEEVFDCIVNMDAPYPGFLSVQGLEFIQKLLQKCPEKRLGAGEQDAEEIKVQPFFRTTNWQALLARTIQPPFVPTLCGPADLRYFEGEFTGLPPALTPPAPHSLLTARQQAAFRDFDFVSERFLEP
# T5 sequence (O00506 whole entry): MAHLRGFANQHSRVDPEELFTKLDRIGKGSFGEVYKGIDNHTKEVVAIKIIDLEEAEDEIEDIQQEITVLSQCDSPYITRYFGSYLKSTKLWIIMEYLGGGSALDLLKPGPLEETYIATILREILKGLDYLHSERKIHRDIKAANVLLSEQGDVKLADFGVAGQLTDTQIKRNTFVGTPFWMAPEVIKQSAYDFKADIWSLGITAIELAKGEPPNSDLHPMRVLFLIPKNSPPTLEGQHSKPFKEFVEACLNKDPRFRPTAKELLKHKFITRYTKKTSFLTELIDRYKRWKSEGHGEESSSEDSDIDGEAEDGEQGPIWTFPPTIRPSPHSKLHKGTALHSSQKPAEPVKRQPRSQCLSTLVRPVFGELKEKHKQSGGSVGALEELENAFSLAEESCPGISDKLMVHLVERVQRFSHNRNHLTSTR
compound,measurement,setting,value
CC(C)(C)C(=O)N1N=CC[C@H]1c1ccccc1 [GSK′963],remaining activity at 10 µM,ALK4/ACVR1B; [1],103%
same,remaining activity at 10 µM,ALK4/ACVR1B; [2],104%
same,remaining activity at 10 µM,ALK4/ACVR1B; [3],102%
same,remaining activity at 10 µM,MKK6; [1],99.7%
same,remaining activity at 10 µM,MKK6; [2],101%
same,remaining activity at 10 µM,MKK6; [3],98.6%
same,remaining activity at 10 µM,MEK3; [1],108%
same,remaining activity at 10 µM,MEK3; [2],103%
same,remaining activity at 10 µM,MEK3; [3],113%
same,remaining activity at 10 µM,PKN3/PRK3; [1],94%
same,remaining activity at 10 µM,PKN3/PRK3; [2],92.9%
same,remaining activity at 10 µM,PKN3/PRK3; [3],95.1%
same,remaining activity at 10 µM,STK25/YSK1; [1],96.1%
same,remaining activity at 10 µM,STK25/YSK1; [2],96.7%
same,remaining activity at 10 µM,STK25/YSK1; [3],95.4%
same,remaining activity at 10 µM,PKCepsilon; [1],105%
same,remaining activity at 10 µM,PKCepsilon; [2],103%
same,remaining activity at 10 µM,PKCepsilon; [3],106%
